Our source for the remaining activity values is patent publication US12227500B2, “Substituted pyrrolo[2,3-b]pyridines for suppressing toxic endoplasmic reticulum stress” (THE TRUSTEES OF COLUMBIA UNIVERSITY IN THE CITY OF NEW YORK, priority 2018, dated 2025).

What all share (experiment): Radiolabeled ATP kinase assay, panel of 371 kinases (Table S6)
What all share (assay type): biochemical

Experiment [1] addresses T1, panel of 371 human kinases (Homo sapiens, UniProt P43250).
T1 construct: purchased Reaction Biology Corp
As to conditions: GRK6; 0.1 μM; 10 μM ATP; read-out: % Enzyme Activity (relative to DMSO controls). The text has this: (§1) ; FIG. 38C). […]. Further targeted analyses, such as genetic knock-down or knock-out, may be warranted to parse the role of these additional kinases in our model of neurodegeneration.

The target in experiment [2] is T2, panel of 371 human kinases (Homo sapiens, UniProt Q07002).
T2 construct: purchased Reaction Biology Corp
As to conditions: CDK18/cyclin Y (PCTK3); 0.1 μM; 10 μM ATP; read-out: % Enzyme Activity (relative to DMSO controls).
From the text: as §1

Experiment [3] has as its target T3, panel of 371 human kinases (Homo sapiens, UniProt O15146).
T3 construct: purchased Reaction Biology Corp
As to conditions: MUSK; 0.1 μM; 10 μM ATP; read-out: % Enzyme Activity (relative to DMSO controls).
From the text: as §1

In experiment [4] the target is T4, panel of 371 human kinases (Homo sapiens, UniProt Q9BYP7).
T4 construct: purchased Reaction Biology Corp
Conditions: WNK3; 0.1 μM; 10 μM ATP; read-out: % Enzyme Activity (relative to DMSO controls).
From the text: as §1

The target in experiment [5] is T5, panel of 371 human kinases (Homo sapiens, UniProt P54760).
T5 construct: purchased Reaction Biology Corp
As to conditions: EPHB4; 0.1 μM; 10 μM ATP; read-out: % Enzyme Activity (relative to DMSO controls).
From the text: as §1

Experiment [6] has as its target T6, panel of 371 human kinases (Homo sapiens, UniProt Q8TDX7).
T6 construct: purchased Reaction Biology Corp
As to conditions: NEK7; 0.1 μM; 10 μM ATP; read-out: % Enzyme Activity (relative to DMSO controls).
From the text: as §1

Experiment [7] has as its target T7, panel of 371 human kinases (Homo sapiens, UniProt P17252).
T7 construct: purchased Reaction Biology Corp
Conditions: PKCa; 0.1 μM; 10 μM ATP; read-out: % Enzyme Activity (relative to DMSO controls).
From the text: as §1

Experiment [8] has as its target T8, panel of 371 human kinases (Homo sapiens, UniProt Q9Y243).
T8 construct: purchased Reaction Biology Corp
As to conditions: AKT3; 0.1 μM; 10 μM ATP; read-out: % Enzyme Activity (relative to DMSO controls).
From the text: as §1

The target in experiment [9] is T9, panel of 371 human kinases (Homo sapiens, UniProt P78368).
T9 construct: purchased Reaction Biology Corp
As to conditions: CK1g2; 0.1 μM; 10 μM ATP; read-out: % Enzyme Activity (relative to DMSO controls).
From the text: as §1

Experiment [10] has as its target T10, panel of 371 human kinases (Homo sapiens, UniProt Q96RG2).
T10 construct: purchased Reaction Biology Corp
Conditions: PASK; 0.1 μM; 10 μM ATP; read-out: % Enzyme Activity (relative to DMSO controls).
From the text: as §1

Experiment [11] has as its target T11, panel of 371 human kinases (Homo sapiens, UniProt Q9H792).
T11 construct: purchased Reaction Biology Corp
As to conditions: PEAK1; 0.1 μM; 10 μM ATP; read-out: % Enzyme Activity (relative to DMSO controls).
From the text: as §1

The target of experiment [12] is T12, panel of 371 human kinases (Homo sapiens, UniProt P51812).
T12 construct: purchased Reaction Biology Corp
Conditions: RSK2; 0.1 μM; 10 μM ATP; read-out: % Enzyme Activity (relative to DMSO controls).
From the text: as §1

Experiment [13] concerns the target T13, panel of 371 human kinases (Homo sapiens, UniProt Q9BWU1).
T13 construct: purchased Reaction Biology Corp
Conditions: CDK19/cyclin C; 0.1 μM; 10 μM ATP; read-out: % Enzyme Activity (relative to DMSO controls).
From the text: as §1

The target in experiment [14] is T14, panel of 371 human kinases (Homo sapiens, UniProt Q13976).
T14 construct: purchased Reaction Biology Corp
Conditions: PKG1a; 0.1 μM; 10 μM ATP; read-out: % Enzyme Activity (relative to DMSO controls).
From the text: as §1

The target of experiment [15] is T15, panel of 371 human kinases (Homo sapiens, UniProt Q05397).
T15 construct: purchased Reaction Biology Corp
As to conditions: FAK/PTK2; 0.1 μM; 10 μM ATP; read-out: % Enzyme Activity (relative to DMSO controls).
From the text: as §1

In experiment [16] the target is T16, panel of 371 human kinases (Homo sapiens, UniProt P22455).
T16 construct: purchased Reaction Biology Corp
Conditions: FGFR4; 0.1 μM; 10 μM ATP; read-out: % Enzyme Activity (relative to DMSO controls).
From the text: as §1

Experiment [17] has as its target T17, panel of 371 human kinases (Homo sapiens, UniProt P06239).
T17 construct: purchased Reaction Biology Corp
As to conditions: LCK; 0.1 μM; 10 μM ATP; read-out: % Enzyme Activity (relative to DMSO controls).
From the text: as §1

Experiment [18] deals with T18, panel of 371 human kinases (Homo sapiens, UniProt Q9H093).
T18 construct: purchased Reaction Biology Corp
As to conditions: SNARK/NUAK2; 0.1 μM; 10 μM ATP; read-out: % Enzyme Activity (relative to DMSO controls).
From the text: as §1

For experiment [19], the target named is T19, panel of 371 human kinases (Homo sapiens, UniProt P51957).
T19 construct: purchased Reaction Biology Corp
As to conditions: NEK4; 0.1 μM; 10 μM ATP; read-out: % Enzyme Activity (relative to DMSO controls).
From the text: as §1

Experiment [20] deals with T20, panel of 371 human kinases (Homo sapiens, UniProt P04626).
T20 construct: purchased Reaction Biology Corp
Conditions: ERBB2/HER2; 0.1 μM; 10 μM ATP; read-out: % Enzyme Activity (relative to DMSO controls).
From the text: as §1

For experiment [21], the target named is T21, panel of 371 human kinases (Homo sapiens, UniProt Q9NQU5).
T21 construct: purchased Reaction Biology Corp
As to conditions: PAK6; 0.1 μM; 10 μM ATP; read-out: % Enzyme Activity (relative to DMSO controls).
From the text: as §1

In experiment [22] the target is T22, panel of 371 human kinases (Homo sapiens, UniProt P53779).
T22 construct: purchased Reaction Biology Corp
As to conditions: JNK3; 0.1 μM; 10 μM ATP; read-out: % Enzyme Activity (relative to DMSO controls).
From the text: as §1

The target of experiment [23] is T23, panel of 371 human kinases (Homo sapiens, UniProt P04049).
T23 construct: purchased Reaction Biology Corp
Conditions: RAF1; 0.1 μM; 10 μM ATP; read-out: % Enzyme Activity (relative to DMSO controls).
From the text: as §1

The target in experiment [24] is T24, panel of 371 human kinases (Homo sapiens, UniProt P16591).
T24 construct: purchased Reaction Biology Corp
Conditions: FER; 0.1 μM; 10 μM ATP; read-out: % Enzyme Activity (relative to DMSO controls).
From the text: as §1

T1 sequence (P43250 whole entry): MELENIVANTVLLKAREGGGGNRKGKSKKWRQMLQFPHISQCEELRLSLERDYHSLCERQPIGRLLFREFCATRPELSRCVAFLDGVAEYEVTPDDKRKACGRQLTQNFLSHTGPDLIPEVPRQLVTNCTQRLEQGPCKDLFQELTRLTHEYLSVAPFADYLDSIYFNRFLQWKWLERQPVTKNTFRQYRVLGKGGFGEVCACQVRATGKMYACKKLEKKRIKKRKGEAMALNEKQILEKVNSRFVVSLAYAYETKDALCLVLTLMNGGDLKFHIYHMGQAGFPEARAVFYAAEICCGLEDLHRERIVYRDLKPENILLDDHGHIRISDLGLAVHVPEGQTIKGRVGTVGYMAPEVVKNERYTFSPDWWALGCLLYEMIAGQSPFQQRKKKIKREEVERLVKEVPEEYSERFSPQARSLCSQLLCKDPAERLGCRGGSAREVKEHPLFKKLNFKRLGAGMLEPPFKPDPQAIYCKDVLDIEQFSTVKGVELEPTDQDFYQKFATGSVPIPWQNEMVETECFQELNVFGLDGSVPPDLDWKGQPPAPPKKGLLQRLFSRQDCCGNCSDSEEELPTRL
T2 sequence (Q07002 whole entry): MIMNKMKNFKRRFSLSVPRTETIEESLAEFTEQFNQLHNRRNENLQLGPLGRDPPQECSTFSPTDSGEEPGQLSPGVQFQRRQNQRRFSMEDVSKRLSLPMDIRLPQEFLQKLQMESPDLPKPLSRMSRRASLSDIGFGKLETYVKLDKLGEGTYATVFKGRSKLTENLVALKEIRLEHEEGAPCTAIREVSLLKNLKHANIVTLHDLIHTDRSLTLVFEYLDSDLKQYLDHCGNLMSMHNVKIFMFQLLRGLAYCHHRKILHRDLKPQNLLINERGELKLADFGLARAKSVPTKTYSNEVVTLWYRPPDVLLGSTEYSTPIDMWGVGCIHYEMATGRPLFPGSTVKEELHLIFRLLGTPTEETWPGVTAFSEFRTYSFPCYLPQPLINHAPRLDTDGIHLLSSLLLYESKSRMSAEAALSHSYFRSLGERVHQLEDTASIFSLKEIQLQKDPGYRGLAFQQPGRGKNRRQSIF
T18 sequence (Q9H093 whole entry): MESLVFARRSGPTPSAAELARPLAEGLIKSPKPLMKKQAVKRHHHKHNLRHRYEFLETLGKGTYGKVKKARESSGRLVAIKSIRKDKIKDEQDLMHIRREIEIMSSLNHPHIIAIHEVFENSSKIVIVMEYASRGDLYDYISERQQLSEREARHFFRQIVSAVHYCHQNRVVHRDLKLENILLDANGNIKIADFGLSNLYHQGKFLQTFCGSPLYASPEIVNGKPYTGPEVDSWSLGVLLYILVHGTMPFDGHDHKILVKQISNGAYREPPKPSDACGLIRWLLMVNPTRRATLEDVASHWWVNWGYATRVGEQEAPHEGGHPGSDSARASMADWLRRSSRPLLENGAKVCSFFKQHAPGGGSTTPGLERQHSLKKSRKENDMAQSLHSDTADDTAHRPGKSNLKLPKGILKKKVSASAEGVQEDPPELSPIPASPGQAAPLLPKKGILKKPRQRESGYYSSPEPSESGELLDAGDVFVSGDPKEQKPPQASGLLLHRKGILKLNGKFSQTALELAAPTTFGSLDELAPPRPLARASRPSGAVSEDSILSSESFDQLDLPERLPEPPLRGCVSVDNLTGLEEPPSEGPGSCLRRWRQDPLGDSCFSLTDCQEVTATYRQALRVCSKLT
T14 sequence (Q13976 whole entry): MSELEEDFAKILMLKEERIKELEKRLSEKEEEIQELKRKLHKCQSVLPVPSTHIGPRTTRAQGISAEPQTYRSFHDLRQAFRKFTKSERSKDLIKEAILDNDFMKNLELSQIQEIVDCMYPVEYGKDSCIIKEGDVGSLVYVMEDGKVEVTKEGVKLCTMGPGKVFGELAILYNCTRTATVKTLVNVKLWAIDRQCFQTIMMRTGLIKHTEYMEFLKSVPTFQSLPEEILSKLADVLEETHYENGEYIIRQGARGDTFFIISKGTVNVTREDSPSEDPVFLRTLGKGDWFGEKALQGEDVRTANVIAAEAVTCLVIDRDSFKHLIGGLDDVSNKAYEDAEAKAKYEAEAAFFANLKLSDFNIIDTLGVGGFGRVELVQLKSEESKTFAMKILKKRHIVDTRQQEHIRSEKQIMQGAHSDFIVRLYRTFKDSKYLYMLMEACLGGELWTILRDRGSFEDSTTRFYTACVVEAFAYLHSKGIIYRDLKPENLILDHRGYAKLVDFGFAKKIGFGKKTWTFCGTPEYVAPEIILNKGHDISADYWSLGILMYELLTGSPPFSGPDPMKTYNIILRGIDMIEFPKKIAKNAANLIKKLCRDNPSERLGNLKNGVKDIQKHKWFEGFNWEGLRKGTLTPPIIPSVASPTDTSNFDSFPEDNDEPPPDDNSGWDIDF
T3 sequence (O15146 24-869): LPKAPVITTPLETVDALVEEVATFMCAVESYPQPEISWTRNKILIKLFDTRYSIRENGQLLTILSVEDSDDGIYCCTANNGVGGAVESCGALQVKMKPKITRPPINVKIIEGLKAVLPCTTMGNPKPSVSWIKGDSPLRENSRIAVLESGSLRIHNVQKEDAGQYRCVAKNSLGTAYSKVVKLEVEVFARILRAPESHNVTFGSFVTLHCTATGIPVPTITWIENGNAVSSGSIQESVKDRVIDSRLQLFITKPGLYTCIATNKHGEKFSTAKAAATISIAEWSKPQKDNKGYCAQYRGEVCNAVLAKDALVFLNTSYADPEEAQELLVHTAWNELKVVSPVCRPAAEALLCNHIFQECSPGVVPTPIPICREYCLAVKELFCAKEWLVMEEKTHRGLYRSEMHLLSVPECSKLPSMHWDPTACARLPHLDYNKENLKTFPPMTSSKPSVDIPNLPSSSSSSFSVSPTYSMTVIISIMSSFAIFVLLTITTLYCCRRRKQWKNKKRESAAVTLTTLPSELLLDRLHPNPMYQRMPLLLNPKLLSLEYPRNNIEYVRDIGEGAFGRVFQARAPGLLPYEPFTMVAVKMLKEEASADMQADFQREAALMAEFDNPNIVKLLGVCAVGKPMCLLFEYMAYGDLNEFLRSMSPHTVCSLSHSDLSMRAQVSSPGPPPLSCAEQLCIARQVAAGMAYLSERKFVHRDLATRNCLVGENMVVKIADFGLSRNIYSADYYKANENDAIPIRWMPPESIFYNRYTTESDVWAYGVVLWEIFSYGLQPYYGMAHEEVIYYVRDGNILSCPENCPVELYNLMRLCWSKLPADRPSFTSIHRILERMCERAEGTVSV
T19 sequence (P51957 whole entry): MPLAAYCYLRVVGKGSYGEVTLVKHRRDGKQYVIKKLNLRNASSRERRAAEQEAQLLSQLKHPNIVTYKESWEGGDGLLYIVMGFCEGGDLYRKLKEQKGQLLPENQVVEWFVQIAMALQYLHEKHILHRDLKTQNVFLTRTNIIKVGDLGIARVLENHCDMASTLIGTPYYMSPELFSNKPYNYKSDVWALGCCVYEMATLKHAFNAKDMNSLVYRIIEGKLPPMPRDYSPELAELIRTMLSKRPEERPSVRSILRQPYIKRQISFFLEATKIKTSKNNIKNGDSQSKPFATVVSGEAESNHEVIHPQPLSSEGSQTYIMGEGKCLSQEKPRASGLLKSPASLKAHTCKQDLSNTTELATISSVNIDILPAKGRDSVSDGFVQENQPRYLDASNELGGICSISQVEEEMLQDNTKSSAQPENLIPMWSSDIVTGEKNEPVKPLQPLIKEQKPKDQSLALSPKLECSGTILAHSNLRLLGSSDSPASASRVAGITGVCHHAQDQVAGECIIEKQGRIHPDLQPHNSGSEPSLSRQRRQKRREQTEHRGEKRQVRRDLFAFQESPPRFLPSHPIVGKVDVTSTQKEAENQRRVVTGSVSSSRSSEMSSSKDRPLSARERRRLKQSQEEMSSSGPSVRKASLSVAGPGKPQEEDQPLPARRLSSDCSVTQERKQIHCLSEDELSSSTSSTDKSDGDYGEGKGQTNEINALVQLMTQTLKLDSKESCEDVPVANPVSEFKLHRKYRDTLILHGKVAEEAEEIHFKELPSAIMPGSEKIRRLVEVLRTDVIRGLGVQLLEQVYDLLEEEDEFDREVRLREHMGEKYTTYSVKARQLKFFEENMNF
T9 sequence (P78368 whole entry): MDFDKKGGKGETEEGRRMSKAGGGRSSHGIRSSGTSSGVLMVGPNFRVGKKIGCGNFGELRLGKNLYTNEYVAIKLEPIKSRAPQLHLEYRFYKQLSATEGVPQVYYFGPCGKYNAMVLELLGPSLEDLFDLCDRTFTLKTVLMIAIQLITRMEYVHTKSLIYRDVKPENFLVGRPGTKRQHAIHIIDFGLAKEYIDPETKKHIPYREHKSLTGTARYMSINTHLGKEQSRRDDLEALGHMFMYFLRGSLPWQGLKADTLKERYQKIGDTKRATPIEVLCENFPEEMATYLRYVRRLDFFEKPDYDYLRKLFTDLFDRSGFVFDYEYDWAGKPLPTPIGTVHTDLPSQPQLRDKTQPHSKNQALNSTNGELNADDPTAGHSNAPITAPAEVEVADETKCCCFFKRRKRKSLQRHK
T8 sequence (Q9Y243 whole entry): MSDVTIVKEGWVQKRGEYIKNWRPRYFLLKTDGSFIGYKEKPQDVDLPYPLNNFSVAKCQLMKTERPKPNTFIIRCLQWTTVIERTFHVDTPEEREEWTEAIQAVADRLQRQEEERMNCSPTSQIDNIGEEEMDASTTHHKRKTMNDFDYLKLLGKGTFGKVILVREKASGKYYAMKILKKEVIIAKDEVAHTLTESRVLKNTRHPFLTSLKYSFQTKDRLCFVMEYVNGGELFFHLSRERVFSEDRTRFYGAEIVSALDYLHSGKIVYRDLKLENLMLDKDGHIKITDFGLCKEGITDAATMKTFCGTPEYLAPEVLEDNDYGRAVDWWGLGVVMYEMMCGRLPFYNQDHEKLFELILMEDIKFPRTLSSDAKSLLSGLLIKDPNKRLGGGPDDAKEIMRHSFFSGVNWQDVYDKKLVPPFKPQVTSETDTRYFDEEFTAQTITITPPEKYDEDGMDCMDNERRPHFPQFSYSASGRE

For `CN1CCN(Cc2ccc(-c3cnc4[nH]cc(-c5ccc6[nH]ccc6c5)c4c3)cc2)CC1` [Compound 1, 3-(1H-Indol-5-yl)-5-(4-((4-methylpiperazin-1-yl)methyl)phenyl)-1H-pyrrolo[2,3-b]pyridine, reference compound], the remaining activity at 0.1 µM in [1] is 91.5%; in experiment [2], 90.3%; in experiment [3] it was 101%; in experiment [4] it was 93.7%; in [5], 91.6%; in [6], 94.9%. The remaining activity at 0.1 µM stood at 91.4% in [7]; 98.4% in experiment [8]; 102% in experiment [9]; 78% in experiment [10]; 109% in experiment [11]; 105% in experiment [12]. In addition, the remaining activity at 0.1 µM in [13] was 94.9%; in experiment [14], 101%; in [15], 86.3%; in experiment [16], 97.2%; in experiment [17], 94.2%; in experiment [18], 82.8%. Moreover, the remaining activity at 0.1 µM is 89.8% in experiment [19]; 95.3% in experiment [20]; 94.6% in [21]; 89.5% in [22]; 104% in [23]; 94.8% in experiment [24].

For `OCCN1CCN(Cc2ccc(-c3cnc4[nH]cc(-c5cccc(Cl)c5)c4c3)cc2)CC1` [Compound 12k, 2-(4-(4-(3-(3-Chlorophenyl)-1H-pyrrolo[2,3-b]pyridin-5-yl)benzyl)piperazin-1-yl)ethan-1-ol], the remaining activity at 0.1 µM was 95.2% in [1]; 77.5% in [2]; 86.7% in experiment [3]; 82.2% in [4]; 97.5% in experiment [5]; 101% in [6]. Also, the remaining activity at 0.1 µM in experiment [7] is 98.5%; in experiment [8], 97.2%; in experiment [9] it was 102%; in [10] it was 90.1%; in experiment [11], 101%; in [12], 77.3%. Further, the remaining activity at 0.1 µM in [13] is 64.8%; in experiment [14], 108%; in experiment [15], 88.5%; in experiment [16], 100%; in experiment [17], 98.8%; in experiment [18], 59.5%. For the same compound, the remaining activity at 0.1 µM is 87.4% in experiment [19]; 96% in experiment [20]; 96.3% in experiment [21]; 94.4% in [22]; 105% in experiment [23]; 103% in experiment [24].
